We go through four compounds from publication PMC10611510, “Teicoplanin associated gene tcaA inactivation increases persister cell formation in Staphylococcus aureus” (Frontiers in Microbiology, 2023).

Test [1] relates to S. aureus WT. In words: microbe, parasite or virus in culture. It is filed as cell-based, Staphylococcus aureus.
Test [2] relates to ΔtcaA. The test is described as follows: MIC, two-fold broth microdilution (CLSI). It is filed as cell-based. Conditions: Staphylococcus aureus.
Another test deals with C-ΔtcaA. The test is described as follows: Growth curve analysis. It is filed as cell-based, Staphylococcus aureus. Conditions: OD600, 37°C. Here is the method:
(§1) The overnight culture was 100 times diluted in TSB medium and a 200 μL was inoculated into a 96-well microtiter plate. The plates were incubated at 37°C with shaking at 200 rpm. At different time intervals (1–18 and 24 h), OD600 was measured using a microplate reader (Thermo Fisher, Waltham, MA, USA).

A further test deals with MRSA MW2. In words: Growth curve analysis. It is filed as cell-based, Staphylococcus aureus. Conditions: OD600, 37°C. As to the method:
as §1

For test [3], the system named is S. aureus WT. The test is described as follows: Growth curve analysis. It is filed as cell-based, Staphylococcus aureus. To be noted: OD600, 37°C. Here is the method:
as §1

Test [4] relates to ΔtcaA. In words: Growth curve analysis. It is filed as cell-based, Staphylococcus aureus. Conditions: OD600, 37°C. Here is the method: as §1
The subject of test [5] is ΔtcaA. The test is described as follows: Antibiotic susceptibility testing (inhibition zones). It is filed as cell-based, Staphylococcus aureus. To be noted: 100 fold MIC, 2 × 10^9 CFU/mL, 37°C, inhibition zones after 24–36 h; Supplementary Figure S1.
The subject of test [6] is ΔtcaA.
Method: (§2) A persistence assay was adopted from our previous protocol ([Habib et al., 2020]). The cells were grown to OD600 = 0.40 in the TSB medium. The pSD1 containing dCas9-tcaA and dCas9-tcaB were induced with ATC 100 ng/mL for 1 h, the medium was removed, and fresh TSB and antibiotic were added whereas ΔtcaA cells were challenged with antibiotic at OD600 = 0.40. After 12 h, a 200 μL sample was taken and CFU counting was performed. Each antibiotic concentration was 10 fold of MIC, and S. aureus WT and S. aureus WT-dCas9 were used as controls.
The next test deals with resistant isolates. Conditions: ref Wang Y. et al., 2017; cited from earlier work. From the text: Glycopeptide resistance in MRSA is a global problem and vancomycin- and teicoplanin-resistant strains are of major clinical relevance. Several studies have reported the emergence of teicoplanin and vancomycin resistance in S. aureus ([Wang Y. et al., 2017]; [Szymanek-Majchrzak et al., 2018]; [Wu et al., 2021]). Typically, teicoplanin and vancomycin bind to D-alanine-D-alanine subunits of the murein monomer and cross resistance could develop between teicoplanin and vancomycin ([Bakthavatchalam et al., 2019]). The cell wall thickness also contributed to the development of vancomycin and teicopla ...

Test [7] deals with penicillin binding protein-2 (pbp2) ectopic expression. To be noted: ref Sieradzki et al., 1998, cited from earlier work; for MIC after the increase: end value of the increase associated with pbp2 ectopic expression; for MIC before the increase: start value of the increase associated with pbp2 ectopic expression. The text has this:
Staphylococcus aureus has two major types of resistant strains, namely, methicillin-resistant S. aureus (MRSA) and vancomycin-resistant S. aureus (VRSA). MRSA is considered the major cause of hospital and community-acquired infections ([Aqib and Rodriguez-Morales, 2021]) and is largely treated with glycopeptides. However, the emergence of teicoplanin resistance, vancomycin-intermediate S. aureus (VISA), and VRSA has made the clinical treatment unsuccessful and increased death rates across the world ([Howden et al., 2010]). S. aureus resistant to glycopeptides are a serious threat to public hea ...

Another test concerns dCas9-tcaA. In words: Persister assay. To be noted: dCas9-tcaA vs WT-dCas9, 10-fold MIC, CFU counting; for Surviving fraction of cells (persisters), fold relative to control: after 12 h, triplicates; for Increase in persister cells, fold relative to control: after 48 h.
In another test the test system is dCas9-tcaB. The test is described as follows: Persister assay. To be noted: dCas9-tcaB vs WT-dCas9 and WT; 10-fold MIC.
For test [8], the system named is ΔtcaA. The test is described as follows: Fluorescence microscopy of persister cell resuscitation (GFP). To be noted: 20-fold MIC for 48 h, washed, fresh TSB 2 h at 37°C; ΔtcaA compared to WT.
Method: Fluorescence microscopy was used to observe the persister cell resuscitation ability of the whole population. […] The cells were harvested, washed with ddH2O, and resuspended in TSB media. The cells were grown for 2 h at 37°C and the S. aureus WT and ΔtcaA were observed under the fluorescence microscope.
In test [9] the test system is ΔtcaA. The test is described as follows: Persister assay.
Method: as §2
Where [10] appears, read: C-ΔtcaA complementary strain, 1 mg/L.
Setting [11] is: ΔtcaA complementary strain, 2 mg/L.

Converted amounts (≈) assume the structure as drawn. “Also recorded” adds a separate entry of the source. Where two headings read alike, the source gives them in different places.

Method for dCas9-tcaA: as §2
Method for dCas9-tcaB: as §2

With `COc1cccc(OC)c1C(=O)N[C@@H]1C(=O)N2[C@@H]1SC(C)(C)[C@@H]2C(=O)O` [Methicillin], in the test with S. aureus WT [1], the “Susceptibility of the isolate (in words)” value is listed as “resistant”. In addition, the MIC was above 512 µg/mL against S. aureus WT [1] (Staphylococcus aureus) and at least 256 µg/mL in the test on ΔtcaA [2].

With `CN[C@H](CC(C)C)C(=O)N[C@H]1C(=O)N[C@@H](CC(N)=O)C(=O)N[C@H]2C(=O)N[C@H]3C(=O)N[C@H](C(=O)N[C@H](C(=O)O)c4cc(O)cc(O)c4-c4cc3ccc4O)[C@H](O)c3ccc(c(Cl)c3)Oc3cc2cc(c3O[C@@H]2O[C@H](CO)[C@@H](O)[C@H](O)[C@H]2O[C@H]2C[C@](C)(N)[C@H](O)[C@H](C)O2)Oc2ccc(cc2Cl)[C@H]1O` [Vancomycin], in the test with S. aureus WT [1], the “Susceptibility of the isolate (in words)” value was “resistant”. The values for the MIC against S. aureus WT [1] (Staphylococcus aureus) and with resistant isolates were 10 µg/mL (≈ 6.9 µM) and 2 µg/mL (≈ 1.38 µM), respectively. The “Growth in TSB with antibiotic (in words)” value in the test with C-ΔtcaA (setting [10]) is “fast and steady growth”; with C-ΔtcaA (setting [11]), “slow growth”; in the test on MRSA MW2 (1 mg/L), “slow growth rates”; with MRSA MW2 (2 mg/L), “did not show any growth”; in the test with S. aureus WT [3] (1 mg/L), “fast and steady growth”; with S. aureus WT [3] (2 mg/L) it was “slow growth”. Further, the “Growth in TSB with antibiotic (in words)” value with ΔtcaA [4] (1 mg/L) is “fast and steady growth”; in the test on ΔtcaA [4] (2 mg/L), “slow growth”. Moreover, the “Susceptibility of ΔtcaA (in words)” value in the test on ΔtcaA [5] was “resistance; also recorded: susceptibility was decreased”. Besides, the “Increase in persister cells, fold (tcaA persistence assay, summary)” value in the test with ΔtcaA [6] is 10–11 fold. The “Increase in persister cells, fold relative to control” value turned out to be 11 fold in the test on ΔtcaA [6] and 10 fold in the test with dCas9-tcaA. Also, the “MIC after the increase” value in test [7] is 2 µg/mL (≈ 1.38 µM). The “MIC before the increase” value in test [7] is 1 µg/mL (≈ 0.69 µM). Further, the “Surviving fraction of cells (persisters), fold relative to control” value with dCas9-tcaA is 15 fold. For the same compound, the “Persister cell formation relative to controls (in words)” value with dCas9-tcaB is “did not induce persister cell formation”. For the same compound, the “GFP-expressing cells after antibiotic removal (resuscitation)” value in the test on ΔtcaA [8] is on record as “high number of cells expressing GFP in ΔtcaA cells compared to WT”.

As to `CC[C@H]1OC(=O)[C@H](C)[C@@H](O[C@H]2C[C@@](C)(OC)[C@@H](O)[C@H](C)O2)[C@H](C)[C@@H](O[C@@H]2O[C@H](C)C[C@H](N(C)C)[C@H]2O)[C@](C)(O)C[C@@H](C)CN(C)[C@H](C)[C@@H](O)[C@]1(C)O` [Azithromycin], the “Susceptibility of the isolate (in words)” value with S. aureus WT [1] is “sensitive”. Besides, the MIC in the test on S. aureus WT [1] (Staphylococcus aureus) and against ΔtcaA [2] was at most 8 µg/mL in each case. Besides, in the test on ΔtcaA [5], the “Susceptibility of ΔtcaA (in words)” value is listed as “did not affect”.

Regarding Teicoplanin, the MIC against S. aureus WT [1] and with resistant isolates was 16 µg/mL throughout. Besides, the “Susceptibility of the isolate (in words)” value in the test with S. aureus WT [1] was “resistant”. The “Growth in TSB with antibiotic (in words)” value in the test with C-ΔtcaA (setting [10]) was “fast and steady growth”; with C-ΔtcaA (setting [11]), “slow growth”; with MRSA MW2 (1 mg/L), “slow growth rates”; with MRSA MW2 (2 mg/L), “did not show any growth”; in the test with S. aureus WT [3] (1 mg/L) it was “fast and steady growth”; in the test with S. aureus WT [3] (2 mg/L), “slow growth”. Moreover, the “Growth in TSB with antibiotic (in words)” value in the test on ΔtcaA [4] (1 mg/L) was “fast and steady growth”; in the test with ΔtcaA [4] (2 mg/L), “slow growth”. Besides, the “Susceptibility of ΔtcaA (in words)” value in the test on ΔtcaA [5] is on record as “resistance; also recorded: susceptibility was decreased”. For the same compound, the “MIC after the increase” value in test [7] was 8 µg/mL. For the same compound, the “MIC before the increase” value in test [7] was 2 µg/mL. The “Surviving fraction of cells (persisters), fold relative to control” value is 17 fold in the test with dCas9-tcaA and 18 fold in the test with ΔtcaA [9] (ΔtcaA vs WT, 10-fold MIC, after 12 h, CFU counting, triplicates). The “Increase in persister cells, fold relative to control” value in the test with dCas9-tcaA worked out at 13 fold; with ΔtcaA [9] (ΔtcaA vs WT, 10-fold MIC, after 48 h, CFU counting), 14 fold. For the same compound, in the test on ΔtcaA [9] (summary over dCas9-tcaA and ΔtcaA, discussion), the “Increase in persister cells, fold (tcaA persistence assay, summary)” value is on record as 13–14 fold. Also, the “Persister cell formation relative to controls (in words)” value with dCas9-tcaB is on record as “did not induce persister cell formation”. In addition, the “GFP-expressing cells after antibiotic removal (resuscitation)” value with ΔtcaA [8] is “high number of cells expressing GFP in ΔtcaA cells compared to WT”.
